Where a SMILES comes first, the peptide text is derived from it. The star is where a group is joined. AMC = Cc1cc(=O)oc2cc(N*)ccc12
Molecular target: T1, hr‐granzyme B (Homo sapiens, UniProt P10144)
T1 construct: in the absence and presence of active human recombinant (hr)‐granzyme B
Experiment: Time-course signal-to-noise ratios after reaction with granzyme B
Assay type: biochemical
Details: Ac-IEPD-AMC 25 μM, hr-granzyme B 20 nM, aqueous buffer 37 °C, fluorescence 450 nm, over 30 minutes; mean ± SEM, n=6
Method: In vitro characterisation assays. Enzymatic assays were run in a 384-well format in a PCR opaque microplate (Thermo Scientific). All experiments were performed at least in triplicate. Dilutions and reactions using human GZM B and human neutrophil elastase were prepared in 50 mM Tris-HCl and 100 mM NaCl (pH 7.4). GZM A assays were performed in 25 mM HEPES, 0.1% CHAPS and 10 mM DTT (pH 7.5). Dilutions and incubations with CASP8 and CASP9 were prepared in 50 mM HEPES, 100 mM NaCl, 0.1% Triton X-100, 10 mM DTT, 1 mM EDTA and 10% glycerol (pH 7.4). Any other tested biomolecules were prepared in PBS. Proteolytic activity was determined by calculating the fold change in chemiluminescence signal (or fluorescence signal in the case of Ac - IEPD-AMC) over background signal provided by the corresponding dilution of the probes with the enzyme using a spectrophotometer (Synergy H1 Hybrid Reader, BioTek) at 37°C.
Unless otherwise stated, probes were utilized at a concentration of 100 μM. Enzyme concentration used: 20 nM (except CASP9, which was used at 200 nM) and all other biomolecules were tested at 100 μM. In the case where an inhibitor was used, the enzyme was pre-incubated for 1 h with the inhibitor (100 µM) before addition of probe 1.
Cell culture. […]

T1 sequence (P10144 21-247): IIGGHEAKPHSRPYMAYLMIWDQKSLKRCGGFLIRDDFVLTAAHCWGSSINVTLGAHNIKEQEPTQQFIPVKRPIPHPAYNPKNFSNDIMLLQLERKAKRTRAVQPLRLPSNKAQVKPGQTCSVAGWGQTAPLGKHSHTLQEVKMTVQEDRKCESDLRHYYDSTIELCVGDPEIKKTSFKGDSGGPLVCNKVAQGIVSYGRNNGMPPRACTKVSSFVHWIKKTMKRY

- Signal‐to‐noise (S/N) ratio: under 5
Structure (SMILES): CC[C@H](C)[C@H](NC(C)=O)C(=O)N[C@@H](CCC(=O)O)C(=O)N1CCC[C@H]1C(=O)N[C@@H](CC(=O)O)C(=O)Nc1ccc2c(C)cc(=O)oc2c1 [Ac‐IEPD‐AMC] (Ac-IEPD-{AMC})

Source: article PMC7986153, “A Functional Chemiluminescent Probe for in Vivo Imaging of Natural Killer Cell Activity Against Tumours” (Angewandte Chemie (International Ed. in English), 2021)
